Data as given in article PMC7924852, “The Emericellipsins A–E from an Alkalophilic Fungus Emericellopsis alkalina Show Potent Activity against Multidrug-Resistant Pathogenic Fungi” (Journal of Fungi, 2021).
Non-standard residues stand in square brackets, D forms with d. Residues, ends and D or L forms follow the SMILES beside them. Orn = NCCC[C@H](N)C(=O)O

Columns and labels:
human erythrocytes = assay: Hemolytic activity; assay type: cell-based; settings: 20 μM, 1 h, 37 °C, relative to H2O control = 100%, OD 540 nm or 570 nm, triplicate, mean
Experimental: Erythrocytes were isolated from the peripheral blood of healthy donors after incubation at 4 °C for 2–3 h. All the donors are males, 35–38 years old. All of them have approved to collect blood samples, and the authors have permissions filled. All the blood samples have been destroyed after the experiments finished. The red blood cell suspension (100 μL) was pelleted, washed twice with saline, then the pellet was resuspended in 500 μL saline or distilled water (positive control of hemolysis). The compounds were added (final concentration of 20 μM). The samples were incubated for 1 h at 37 °C and centrifuged at 2000 rpm for 1.5 min. The OD of supernatants was measured on a Multiscan spectrophotometer FC (Thermo Scientific, Waltham, MA, USA) at a wavelength of 540 nm. The percent hemolysis was calculated relative to the positive control, taken as 100%.
Erythrocytes were isolated from the human blood: On the day of the study, blood was taken from the donor’s cubital vein into a test tube with an anticoagulant. The blood was incubated at 4 °C for 2‒3 h. A suspension of erythrocytes (100 μL) was diluted with a physiological buffer (pH 7.2) to a total volume of 500 μL. Solutions of the test substances with an initial concentration of […] (DMSO) were diluted with a PBS buffer (1:10). The resulting solutions were introduced into Eppendorf tubes in the amounts required to create the studied concentration (5, 10, or 20 μM). A mixture of PBS with erythrocytes was added to a total volume of 200 μL. The control (C) was a mixture of erythrocytes with H2O (100% of hemolysis). The intact control solution (I) was a mixture of erythrocytes with the PBS and solvent (DMSO). The antibiotic gramicidin S (Gram S) was used as a control sample with active hemolysis. The mixture was incubated for 1 h at 37 °C. The measurement of the optical density of the supernatants was carried out on a BioTek ELx800 automatic microplate photometer (USA) at 570 nm. The optical density of the liquid above the sediment in the control sample with H2O was taken as 100%.

[1] = tested on: Aspergillus niger ATCC 16404; assay: Disc-diffusion antifungal assay; assay type: cell-based; settings: 40 µg/disc; A. niger ATCC 16404
A. niger 1133 m [2] = assay: Disc-diffusion antifungal assay; assay type: cell-based, Aspergillus niger; settings: 40 µg/disc, pathogenic clinical isolate
A. fumigatus VKM F-37 [3] = assay: Disc-diffusion antifungal assay; assay type: cell-based, Aspergillus fumigatus; settings: 40 µg/disc
A. fumigatus 390 m [4] = assay: Disc-diffusion antifungal assay; assay type: cell-based, Aspergillus fumigatus; settings: 40 µg/disc, pathogenic clinical isolate
A. terreus 3 K [5] = assay: Disc-diffusion antifungal assay; assay type: cell-based; settings: 40 µg/disc
A. terreus 497 [6] = assay: Disc-diffusion antifungal assay; assay type: cell-based; settings: 40 µg/disc; A. terreus 497, pathogenic clinical isolate
[7] = tested on: reference and clinical strains of Aspergillus; assay: Disc-diffusion antifungal assay, Aspergillus strains; assay type: cell-based; settings: disc-diffusion, reference and clinical strains of Aspergillus
A. niger ATCC 16404 = assay: Broth two-fold microdilution MIC (CLSI); assay type: cell-based, Aspergillus niger; settings: A. niger ATCC 16404; RPMI 1640 pH 7.0, 35 °C, 48 h, no visible growth
A. niger 1133 m [8] = assay: Broth two-fold microdilution MIC (CLSI); assay type: cell-based, Aspergillus niger; settings: A. niger 1133 m clinical isolate; RPMI 1640 pH 7.0, 35 °C, 48 h
A. terreus 3 K [9] = assay: Broth two-fold microdilution MIC (CLSI); assay type: cell-based; settings: A. terreus 3 K; RPMI 1640 pH 7.0, 35 °C, 48 h
A. terreus 497 [10] = assay: Broth two-fold microdilution MIC (CLSI); assay type: cell-based; settings: A. terreus 497 clinical isolate; RPMI 1640 pH 7.0, 35 °C, 48 h
A. fumigatus VKM F-37 [11] = assay: Broth two-fold microdilution MIC (CLSI); assay type: cell-based, Aspergillus fumigatus; settings: A. fumigatus VKM F-37; RPMI 1640 pH 7.0, 35 °C, 48 h
A. fumigatus 390 m [12] = assay: Broth two-fold microdilution MIC (CLSI); assay type: cell-based, Aspergillus fumigatus; settings: A. fumigatus 390 m clinical isolate; RPMI 1640 pH 7.0, 35 °C, 48 h
[13] = tested on: isolates of Aspergillus spp.; assay: Broth microdilution MIC, ranges over mould isolates; assay type: cell-based; settings: range over opportunistic and clinical isolates of Aspergillus spp. (Table 4)

Molecule	hemolysis (human erythrocytes) [%]	Zone of Inhibition [1] [mm]	Zone of Inhibition (A. niger 1133 m [2]) [mm]	Zone of Inhibition (A. fumigatus VKM F-37 [3]) [mm]	Zone of Inhibition (A. fumigatus 390 m [4]) [mm]	Zone of Inhibition (A. terreus 3 K [5]) [mm]	Zone of Inhibition (A. terreus 497 [6]) [mm]	antifungal activity against Aspergillus strains (in words) [7]	Minimal Inhibitory Concentration (MIC) (A. niger ATCC 16404)	Minimal Inhibitory Concentration (MIC) (A. niger 1133 m [8])	Minimal Inhibitory Concentration (MIC) (A. terreus 3 K [9]) [µg/mL]	Minimal Inhibitory Concentration (MIC) (A. terreus 497 [10]) [µg/mL]	Minimal Inhibitory Concentration (MIC) (A. fumigatus VKM F-37 [11])	Minimal Inhibitory Concentration (MIC) (A. fumigatus 390 m [12])	MIC range [13] [µg/mL]
CC(C)C[C@@H]1NC(=O)[C@H](CCCN)NC(=O)[C@H](C(C)C)NC(=O)[C@@H]2CCCN2C(=O)[C@@H](Cc2ccccc2)NC(=O)[C@H](CC(C)C)NC(=O)[C@H](CCCN)NC(=O)[C@H](C(C)C)NC(=O)[C@@H]2CCCN2C(=O)[C@@H](Cc2ccccc2)NC1=O [gramicidin S] (cyclo(L[dF]PV[Orn]L[dF]PV[Orn]))	100	–	–	–	–	–	–	–	–	–	–	–	–	–	–
Methyldecanoyl-MePro-AHMOD-Ala-Iva-Ile-Iva-βAla-Alaol-Glyol [EmiD, emericellipsin D, homologue of emericellipsin A, nonribosomal peptaibol]	–	0	0	0	0	0	0	totally inactive	˃64 µg/mL	˃64 µg/mL	16	16	32 µg/mL	32 µg/mL	16 to 32
Methyldecanoyl-MePro-AHMOD-Ala-Aib-Ile-Iva-βAla-Aib-Glyol [EmiE, emericellipsin E, homologue of emericellipsin A, nonribosomal peptaibol]	–	0	0	0	0	0	0	totally inactive	˃64 µg/mL	˃64 µg/mL	32	64	˃64 µg/mL	˃64 µg/mL	> 64
